# Laboratory results reported in patent publication US20230295212A1 (ROME Therapeutics, Inc., priority 2022, published 2023).
# Target: T1, LINE1 reverse transcriptase (Homo sapiens, UniProt O00370)
# T1 construct: expressed in transfected cells; host or cells: HeLa Tet-On 3G (Takara, cat no 631183)
# Assay: Stable artificial-intron Cis LINE1 reporter assay (HeLa Tet-On 3G, Firefly luciferase)
# Assay type: cell-based
# Conditions: HeLa L1 artificial-intron reporter cells, doxycycline 500 ng/mL, 72 h, class symbols
# Protocol: Exemplary compounds, were tested for the ability to inhibit LINE1 reverse transcriptase using a stable artificial-intron Cis LINE1 reporter assay. Assay procedures and results are described below.
# A stable HeLa Tet-On 3G (Takara, cat no 631183) cell line expressing a bi-directional inducible LINE1 construct was generated as described in Xie, Y. et al. “Cell division promotes efficient retrotransposition in a stable L1 reporter cell line,” Mobile DNA (2013) 4:10. Single cell clones were screened for high Luciferase expression and the highest expression Firefly expressing clone was chosen for compound testing.
# Test compounds were serially diluted in DMSO and spotted in 96-well plates. Subsequently, the HeLa Li artificial-intron reporter cells were plated into the compound-containing wells (8,000 cells/well), and the cells were induced for reporter expression with doxycycline (Sigma-Aldrich cat #D9891) at a final concentration of 500 ng/mL. Luminescence was measured 72 h after plating using the Dual-Glo Luciferase Assay System (Promega cat #E2940) following the manufacturer's instructions. The Firefly Luciferase activity was used to report LINE1 activity.
# T1 sequence (O00370 whole entry, looked up): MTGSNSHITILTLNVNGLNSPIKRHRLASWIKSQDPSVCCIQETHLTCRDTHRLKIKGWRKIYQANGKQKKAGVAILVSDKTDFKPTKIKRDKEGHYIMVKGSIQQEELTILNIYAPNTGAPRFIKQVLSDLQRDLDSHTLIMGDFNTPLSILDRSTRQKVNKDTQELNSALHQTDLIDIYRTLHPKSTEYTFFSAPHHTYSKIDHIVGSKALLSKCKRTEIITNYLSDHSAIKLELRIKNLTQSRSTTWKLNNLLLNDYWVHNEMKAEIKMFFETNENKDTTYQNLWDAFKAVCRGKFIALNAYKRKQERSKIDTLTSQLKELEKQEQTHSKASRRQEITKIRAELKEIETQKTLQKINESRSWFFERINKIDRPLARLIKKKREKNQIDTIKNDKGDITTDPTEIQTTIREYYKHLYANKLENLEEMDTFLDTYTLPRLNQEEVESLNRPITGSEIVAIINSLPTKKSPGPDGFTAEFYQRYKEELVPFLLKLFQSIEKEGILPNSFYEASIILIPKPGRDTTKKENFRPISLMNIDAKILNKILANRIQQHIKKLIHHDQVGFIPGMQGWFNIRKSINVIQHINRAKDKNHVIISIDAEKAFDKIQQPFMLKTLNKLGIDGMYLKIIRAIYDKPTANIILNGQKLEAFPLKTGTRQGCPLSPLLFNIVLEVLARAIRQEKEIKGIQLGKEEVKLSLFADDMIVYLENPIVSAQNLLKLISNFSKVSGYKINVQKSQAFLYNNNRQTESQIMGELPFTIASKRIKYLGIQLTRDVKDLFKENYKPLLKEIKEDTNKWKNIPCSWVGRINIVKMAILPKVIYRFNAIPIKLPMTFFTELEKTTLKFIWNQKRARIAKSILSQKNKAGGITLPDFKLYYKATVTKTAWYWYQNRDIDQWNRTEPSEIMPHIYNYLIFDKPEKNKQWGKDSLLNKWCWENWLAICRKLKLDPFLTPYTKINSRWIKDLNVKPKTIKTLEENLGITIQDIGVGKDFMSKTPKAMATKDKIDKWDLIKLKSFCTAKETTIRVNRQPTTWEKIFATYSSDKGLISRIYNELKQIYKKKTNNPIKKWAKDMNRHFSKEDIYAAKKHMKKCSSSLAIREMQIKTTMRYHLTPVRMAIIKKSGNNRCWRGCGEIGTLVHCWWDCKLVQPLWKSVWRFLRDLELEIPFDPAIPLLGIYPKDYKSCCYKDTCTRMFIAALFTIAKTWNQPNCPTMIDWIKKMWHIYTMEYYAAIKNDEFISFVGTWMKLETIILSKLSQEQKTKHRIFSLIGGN
row,SMILES,IC50
1,"C#C[C@]1(CO)O[C@@H](n2cc(C)c(=O)[nH]c2=O)[C@@H](F)[C@@H]1O [Compound 39, 1-((2R,3S,4R,5R)-5-ethynyl-3-fluoro-4-hydroxy-5-(hydroxymethyl)tetrahydrofuran-2-yl)-5-methylpyrimidine-2,4(1H,3H)-dione]",250 to 1000 nM
2,"C#C[C@]1(CO)O[C@@H](n2ccc(N)nc2=O)C[C@@H]1O [Compound 41, 4-amino-1-((2R,4S,5R)-5-ethynyl-4-hydroxy-5-(hydroxymethyl)tetrahydrofuran-2-yl)pyrimidin-2(1H)-one]",≤ 50 nM
3,"C#C[C@]1(CO)O[C@@H](n2cnc3c(N)nc(F)nc32)[C@@H](F)[C@@H]1O [Compound 42, (2R,3R,4S,5R)-5-(6-amino-2-fluoro-9H-purin-9-yl)-2-ethynyl-4-fluoro-2-(hydroxymethyl) tetrahydrofuran-3-ol]",≤ 50 nM
4,"C=C[C@]1(CO)O[C@@H](n2ccc(N)nc2=O)C[C@@H]1O [Compound 43, 4-amino-1-((2R,4S,5R)-4-hydroxy-5-(hydroxymethyl)-5-vinyltetrahydrofuran-2-yl)pyrimidin-2(1H)-one]",≤ 50 nM
5,"CC[C@]1(CO)O[C@@H](n2ccc(N)nc2=O)C[C@@H]1O [Compound 44, 4-amino-1-((2R,4S,5R)-5-ethyl-4-hydroxy-5-(hydroxymethyl)tetrahydrofuran-2-yl)pyrimidin-2(1H)-one]",≤ 50 nM
6,"Nc1ccn([C@H]2C[C@H](O)[C@](CO)(CF)O2)c(=O)n1 [Compound 45, 4-amino-1-((2R,4S,5R)-5-(fluoromethyl)-4-hydroxy-5-(hydroxymethyl)tetrahydrofuran-2-yl)pyrimidin-2(1H)-one]",50 to 100 nM
7,"Nc1nc2c(ncn2[C@H]2C[C@H](O)[C@](CO)(CF)O2)c(=O)[nH]1 [Compound 46, 2-amino-9-((2R,4S,5R)-5-(fluoromethyl)-4-hydroxy-5-(hydroxymethyl)tetrahydrofuran-2-yl)-1,9-dihydro-6H-purin-6-one]",50 to 100 nM
8,"C=C[C@]1(CO)O[C@@H](n2ccc(N)nc2=O)[C@@H](F)[C@@H]1O [Compound 47, 4-amino-1-((2R,3S,4R,5R)-3-fluoro-4-hydroxy-5-(hydroxymethyl)-5-vinyltetrahydrofuran-2-yl)pyrimidin-2(1H)-one]",≤ 50 nM
9,"CO[C@]1(CO)O[C@@H](n2ccc(N)nc2=O)C[C@@H]1O [Compound 48, 4-amino-1-((2R,4S,5R)-4-hydroxy-5-(hydroxymethyl)-5-methoxytetrahydrofuran-2-yl)pyrimidin-2(1H)-one]",50 to 100 nM
10,"[N-]=[N+]=N[C@]1(CO)O[C@@H](n2ccc(N)nc2=O)C[C@@H]1O [Compound 49, 4-amino-1-((2R,4S,5R)-5-azido-4-hydroxy-5-(hydroxymethyl)tetrahydrofuran-2-yl)pyrimidin-2(1H)-one]",50 to 100 nM
11,"[N-]=[N+]=N[C@]1(CO)O[C@@H](n2ccc(N)nc2=O)[C@@H](F)[C@@H]1O [Compound 50, 4-amino-1-((2R,3S,4R,5R)-5-azido-3-fluoro-4-hydroxy-5-(hydroxymethyl)tetrahydrofuran-2-yl)pyrimidin-2(1H)-one]",≤ 50 nM
12,"CC[C@]1(CO)O[C@@H](n2ccc(N)nc2=O)[C@@H](F)[C@@H]1O [Compound 51, 4-amino-1-((2R,3S,4R,5R)-5-ethyl-3-fluoro-4-hydroxy-5-(hydroxymethyl)tetrahydrofuran-2-yl)pyrimidin-2(1H)-one]",≤ 50 nM
13,"CC[C@]1(COC(=O)C(C)C)O[C@@H](n2ccc(N)nc2=O)C[C@@H]1OC(=O)C(C)C [Compound 52, [(2R,3S,5R)-5-(4-amino-2-oxopyrimidin-1-yl)-2-ethyl-3-[(2-methylpropanoyl)oxy]oxolan-2-yl] methyl 2-methylpropanoate]",100 to 250 nM
14,"C=C[C@]1(COC(=O)C(C)C)O[C@@H](n2ccc(N)nc2=O)C[C@@H]1OC(=O)C(C)C [Compound 53, [(2R,3S,5R)-5-(4-amino-2-oxopyrimidin-1-yl)-2-ethenyl-3-[(2-methylpropanoyl)oxy]oxolan-2-yl] methyl 2-methylpropanoate]",250 to 1000 nM
15,"CC(C)[C@]1(CO)O[C@@H](n2ccc(N)nc2=O)C[C@@H]1O [Compound 55, 4-amino-1-[(2R,4S,5R)-4-hydroxy-5-(hydroxymethyl)-5-isopropyloxolan-2-yl] pyrimidin-2-one]",> 1000 nM
16,"C=CCC1(CO)O[C@@H](n2ccc(N)nc2=O)C[C@@H]1O (stereo partly drawn) [Compound 56, 1-((2R,4S)-5-allyl-4-hydroxy-5-(hydroxymethyl)tetrahydrofuran-2-yl)-4-aminopyrimidin-2(1H)-one]",100 to 250 nM

row,SMILES,IC50
1,"CCCC1(CO)O[C@@H](n2ccc(N)nc2=O)C[C@@H]1O (stereo partly drawn) [Compound 57, 4-amino-1-((2R,4S,5R)-4-hydroxy-5-(hydroxymethyl)-5-propyltetrahydrofuran-2-yl)pyrimidin-2(1H)-one]",> 1000 nM
2,CC(C)C(=O)OC[C@@]1(CCl)O[C@@H](n2cc(F)c(N)nc2=O)C[C@@H]1OC(=O)C(C)C [Compound 58],50 to 100 nM
3,"Nc1ccn([C@H]2C[C@@H](O)[C@](CO)(CCl)O2)c(=O)n1 [Compound 59, 4-amino-1-[(2R,4R,5R)-5-(chloromethyl)-4-hydroxy-5-(hydroxymethyl)oxolan-2-yl] pyrimidin-2-one]",> 1000 nM
4,"CCC[C@]1(CO)O[C@@H](n2ccc(N)nc2=O)C[C@@H]1O [Compound 60, 4-amino-1-((2R,4S,5R)-4-hydroxy-5-(hydroxymethyl)-5-propyltetrahydrofuran-2-yl)pyrimidin-2(1H)-one]",> 1000 nM
5,"[N-]=[N+]=N[C@]1(CO)O[C@@H](n2cc(F)c(N)nc2=O)C[C@@H]1O [Compound 61, 4-amino-1-((2R,4S,5R)-5-azido-4-hydroxy-5-(hydroxymethyl)tetrahydrofuran-2-yl)-5-fluoropyrimidin-2(1H)-one]",≤ 50 nM
6,"Nc1ccn([C@H]2C[C@H](O)[C@](CO)(CC(F)(F)F)O2)c(=O)n1 [Compound 62, 4-amino-1-[(2R,4S,5R)-4-hydroxy-5-(hydroxymethyl)-5-(2,2,2-trifluoroethyl)oxolan-2-yl] pyrimidin-2-one]",250 to 1000 nM
7,"C=C[C@]1(CO)O[C@@H](n2cnc3c(=O)[nH]c(N)nc32)[C@@H](F)[C@@H]1O [Compound 63, 2-amino-9-[(2R,3S,4R,5R)-5-ethenyl-3-fluoro-4-hydroxy-5-(hydroxymethyl)oxolan-2-yl]-1H-purin-6-one]",250 to 1000 nM
8,"CC[C@]1(CO)O[C@@H](n2cnc3c(N)nc(F)nc32)C[C@@H]1O [Compound 64, (2R,3S,5R)-5-(6-amino-2-fluoro-9H-purin-9-yl)-2-ethyl-2-(hydroxymethyl)tetrahydrofuran-3-ol]",50 to 100 nM
9,"Nc1nc(=O)n([C@H]2C[C@H](O)[C@](CO)(C(F)F)O2)cc1F [Compound 65, 4-amino-1-[(2R,4S,5R)-5-(difluoromethyl)-4-hydroxy-5-(hydroxymethyl)oxolan-2-yl]-5-fluoropyrimidin-2-one]",≤ 50 nM
10,"Nc1nc(=O)n([C@H]2C[C@H](O)[C@](CO)(C(F)(F)F)O2)cc1F [Compound 66, 4-amino-5-fluoro-1-((2R,4S,5R)-4-hydroxy-5-(hydroxymethyl)-5-(trifluoromethyl)tetrahydrofuran-2-yl)pyrimidin-2(1H)-one]",250 to 1000 nM
11,"CC[C@]1(CO)O[C@@H](n2cnc3c(=O)[nH]c(N)nc32)[C@@H](F)[C@@H]1O [Compound 68, 2-amino-9-((2R,3S,4R,5R)-5-ethyl-3-fluoro-4-hydroxy-5-(hydroxymethyl)tetrahydrofuran-2-yl)-1,9-dihydro-6H-purin-6-one]",100 to 250 nM
12,"C=C[C@]1(CO)O[C@@H](n2cnc3c(O)nc(N)nc32)C[C@@H]1O [Compound 69, 2-amino-9-((2R,4S,5R)-4-hydroxy-5-(hydroxymethyl)-5-vinyltetrahydrofuran-2-yl)-1,9-dihydro-6H-purin-6-one]",≤ 50 nM
13,"Nc1nc2c(ncn2[C@@H]2O[C@@](CO)(CCl)[C@@H](O)[C@@H]2F)c(=O)[nH]1 [Compound 70, 2-amino-9-((2R,3S,4R,5R)-5-(chloromethyl)-3-fluoro-4-hydroxy-5-(hydroxymethyl)-tetrahydrofuran-2-yl)-1,9-dihydro-6H-purin-6-one]",> 1000 nM
14,"Nc1nc(=O)n([C@@H]2O[C@@](CO)(CF)[C@@H](O)[C@@H]2O)cc1F [Compound 72, 4-amino-5-fluoro-1-((2R,3S,4S,5R)-5-(fluoromethyl)-3,4-dihydroxy-5-(hydroxymethyl)tetrahydrofuran-2-yl)pyrimidin-2(1H)-one]",250 to 1000 nM
15,"Nc1nc(=O)n([C@@H]2O[C@@](CO)(CCl)[C@@H](O)[C@@H]2O)cc1F [Compound 73, 4-amino-1-((2R,3S,4S,5R)-5-(chloromethyl)-3,4-dihydroxy-5-(hydroxymethyl)tetrahydrofuran-2-yl)-5-fluoropyrimidin-2(1H)-one]",≤ 50 nM

# Same assay, conditions: HeLa L1 artificial-intron reporter cells, doxycycline 500 ng/mL, 72 h, numeric bounds
row,SMILES,IC50
1,"CO[C@H]1C[C@H](n2ccc(N)nc2=O)O[C@@]1(CO)CCl [Compound 54, 4-amino-1-[(2R,4S,5R)-5-(chloromethyl)-5-(hydroxymethyl)-4-methoxyoxolan-2-yl]-3,4-dihydropyrimidin-2-one]",> 30000 nM
2,"Nc1nc(=O)n([C@H]2C[C@H](O)[C@](CO)(CCl)O2)cc1C(F)(F)F [Compound 71, 4-amino-1-((2R,4S,5R)-5-(chloromethyl)-4-hydroxy-5-(hydroxymethyl)tetrahydrofuran-2-yl)-5-(trifluoromethyl)pyrimidin-2(1H)-one]",> 30000 nM
